Laboratory results as given in paper PMC10189658 (Journal of inorganic biochemistry, 2023).

Molecular target: T1, human heme oxygenase-1 (hHO-1) (Homo sapiens, UniProt P09601)
T1 sequence (P09601 1-288): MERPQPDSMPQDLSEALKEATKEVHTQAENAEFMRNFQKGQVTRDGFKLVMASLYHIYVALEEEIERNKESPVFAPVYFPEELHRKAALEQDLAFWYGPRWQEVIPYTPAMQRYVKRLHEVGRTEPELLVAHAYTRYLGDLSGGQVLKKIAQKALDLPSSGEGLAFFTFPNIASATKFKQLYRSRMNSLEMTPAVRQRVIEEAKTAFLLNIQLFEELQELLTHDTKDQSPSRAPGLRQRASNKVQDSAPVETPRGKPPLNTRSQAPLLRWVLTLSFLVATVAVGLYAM
Experiment: UV-Vis Soret equilibrium binding titration

## Brc1ccc(CCC2(Cn3ccnc3)OCCO2)cc1 [OB-24]
  Kd: 4.46 ± 0.8 µM
